Results published in ChEMBL document CHEMBL3991601, “The target landscape of clinical kinase drugs” (Science, 2017).
Calls of active or inactive are those of the source. Cut-off read from the data, not from the text of the source, for most assays here: actives have a measured Kd and inactives only a lower limit.

Columns and labels:
[1] = molecular target: Protein kinase C delta type (Homo sapiens, UniProt Q05655)
[2] = molecular target: T1, Phenylalanine--tRNA ligase beta subunit (Homo sapiens, UniProt Q9NSD9)
T1 sequence (Q9NSD9 whole entry): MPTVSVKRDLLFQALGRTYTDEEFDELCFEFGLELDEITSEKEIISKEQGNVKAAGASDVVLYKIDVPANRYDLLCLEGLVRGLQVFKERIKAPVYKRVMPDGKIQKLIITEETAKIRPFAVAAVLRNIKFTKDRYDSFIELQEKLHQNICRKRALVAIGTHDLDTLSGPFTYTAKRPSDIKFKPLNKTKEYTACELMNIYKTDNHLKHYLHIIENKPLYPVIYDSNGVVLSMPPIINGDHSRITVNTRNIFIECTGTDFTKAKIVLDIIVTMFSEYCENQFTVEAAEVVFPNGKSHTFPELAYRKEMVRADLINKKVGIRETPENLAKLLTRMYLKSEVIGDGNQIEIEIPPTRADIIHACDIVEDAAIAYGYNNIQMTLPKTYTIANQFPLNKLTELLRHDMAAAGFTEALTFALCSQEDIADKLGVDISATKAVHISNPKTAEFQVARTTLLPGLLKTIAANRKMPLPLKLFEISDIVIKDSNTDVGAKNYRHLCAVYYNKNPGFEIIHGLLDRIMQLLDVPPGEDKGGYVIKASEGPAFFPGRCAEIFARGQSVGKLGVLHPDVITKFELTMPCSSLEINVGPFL

[3] = molecular target: T2, Mitogen-activated protein kinase kinase kinase 3 (Homo sapiens, UniProt Q99759)
T2 sequence (Q99759 whole entry): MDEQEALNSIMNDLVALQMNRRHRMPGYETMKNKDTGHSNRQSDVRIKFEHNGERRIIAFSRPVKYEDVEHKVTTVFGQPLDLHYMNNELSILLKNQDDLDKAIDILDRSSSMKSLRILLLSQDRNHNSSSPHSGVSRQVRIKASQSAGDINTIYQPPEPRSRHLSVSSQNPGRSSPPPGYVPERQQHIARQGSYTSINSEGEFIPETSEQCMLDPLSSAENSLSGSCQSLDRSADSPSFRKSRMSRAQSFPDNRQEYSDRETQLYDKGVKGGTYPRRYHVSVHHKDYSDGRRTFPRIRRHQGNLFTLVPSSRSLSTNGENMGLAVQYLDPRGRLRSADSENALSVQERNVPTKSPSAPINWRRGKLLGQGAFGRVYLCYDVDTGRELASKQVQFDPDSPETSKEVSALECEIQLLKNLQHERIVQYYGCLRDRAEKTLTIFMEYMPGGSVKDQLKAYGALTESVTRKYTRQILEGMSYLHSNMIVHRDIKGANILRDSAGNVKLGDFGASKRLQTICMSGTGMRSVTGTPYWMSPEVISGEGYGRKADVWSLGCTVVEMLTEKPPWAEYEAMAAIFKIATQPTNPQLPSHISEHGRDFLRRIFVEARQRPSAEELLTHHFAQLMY

[4] = molecular target: MAP kinase-activated protein kinase 2 (Homo sapiens, UniProt P49137)
Sequence of MAP kinase-activated protein kinase 2 (P49137 whole entry): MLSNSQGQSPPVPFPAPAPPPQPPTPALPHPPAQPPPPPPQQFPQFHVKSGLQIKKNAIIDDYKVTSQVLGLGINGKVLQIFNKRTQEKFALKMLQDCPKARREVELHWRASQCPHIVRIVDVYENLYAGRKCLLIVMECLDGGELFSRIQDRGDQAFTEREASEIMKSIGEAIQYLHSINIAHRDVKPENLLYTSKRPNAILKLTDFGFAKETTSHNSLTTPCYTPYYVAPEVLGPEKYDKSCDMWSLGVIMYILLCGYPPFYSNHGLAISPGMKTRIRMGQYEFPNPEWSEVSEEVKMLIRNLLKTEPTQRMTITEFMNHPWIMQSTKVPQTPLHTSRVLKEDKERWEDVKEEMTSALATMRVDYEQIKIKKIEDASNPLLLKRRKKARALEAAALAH

[5] = molecular target: Cyclin-dependent kinase 4 (Homo sapiens, UniProt P11802)
Sequence of Cyclin-dependent kinase 4 (P11802 whole entry, the tested form may be a part): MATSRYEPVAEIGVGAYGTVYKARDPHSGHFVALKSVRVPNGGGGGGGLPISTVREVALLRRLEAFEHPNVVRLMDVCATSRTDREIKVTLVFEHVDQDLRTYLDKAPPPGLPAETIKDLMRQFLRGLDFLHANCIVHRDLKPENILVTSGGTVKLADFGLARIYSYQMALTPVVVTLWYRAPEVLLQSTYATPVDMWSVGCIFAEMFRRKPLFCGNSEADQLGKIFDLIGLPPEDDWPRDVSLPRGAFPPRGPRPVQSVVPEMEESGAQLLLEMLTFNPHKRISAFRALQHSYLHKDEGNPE

[6] = molecular target: T3, AarF domain-containing protein kinase 1 (Homo sapiens, UniProt Q86TW2)
T3 sequence (Q86TW2 whole entry): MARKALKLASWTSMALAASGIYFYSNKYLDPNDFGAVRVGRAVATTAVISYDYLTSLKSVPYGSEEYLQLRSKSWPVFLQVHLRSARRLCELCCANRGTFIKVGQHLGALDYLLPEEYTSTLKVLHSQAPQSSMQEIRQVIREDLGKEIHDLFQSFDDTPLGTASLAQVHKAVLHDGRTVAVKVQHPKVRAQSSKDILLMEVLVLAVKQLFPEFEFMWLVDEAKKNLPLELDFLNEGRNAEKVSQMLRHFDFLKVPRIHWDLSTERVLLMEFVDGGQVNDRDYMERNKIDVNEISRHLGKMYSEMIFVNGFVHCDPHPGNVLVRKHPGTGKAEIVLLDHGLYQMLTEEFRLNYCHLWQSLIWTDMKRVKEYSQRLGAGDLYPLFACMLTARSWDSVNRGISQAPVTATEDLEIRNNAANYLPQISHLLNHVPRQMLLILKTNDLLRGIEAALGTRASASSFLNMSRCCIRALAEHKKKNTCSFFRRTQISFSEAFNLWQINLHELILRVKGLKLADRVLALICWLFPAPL

[7] = molecular target: Cyclin-dependent kinase 6 (Homo sapiens, UniProt Q00534)
Sequence of Cyclin-dependent kinase 6 (Q00534 whole entry): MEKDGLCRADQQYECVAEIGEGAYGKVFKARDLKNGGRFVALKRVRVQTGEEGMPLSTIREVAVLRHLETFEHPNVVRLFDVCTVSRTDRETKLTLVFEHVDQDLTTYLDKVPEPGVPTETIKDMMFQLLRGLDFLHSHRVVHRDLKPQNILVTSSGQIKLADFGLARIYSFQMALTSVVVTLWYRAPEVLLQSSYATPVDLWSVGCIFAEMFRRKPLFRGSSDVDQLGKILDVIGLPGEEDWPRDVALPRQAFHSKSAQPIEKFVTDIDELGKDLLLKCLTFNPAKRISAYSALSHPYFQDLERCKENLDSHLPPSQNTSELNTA

[8] = molecular target: T4, Serine/threonine-protein kinase 4 (Homo sapiens, UniProt Q13043)
T4 sequence (Q13043 whole entry): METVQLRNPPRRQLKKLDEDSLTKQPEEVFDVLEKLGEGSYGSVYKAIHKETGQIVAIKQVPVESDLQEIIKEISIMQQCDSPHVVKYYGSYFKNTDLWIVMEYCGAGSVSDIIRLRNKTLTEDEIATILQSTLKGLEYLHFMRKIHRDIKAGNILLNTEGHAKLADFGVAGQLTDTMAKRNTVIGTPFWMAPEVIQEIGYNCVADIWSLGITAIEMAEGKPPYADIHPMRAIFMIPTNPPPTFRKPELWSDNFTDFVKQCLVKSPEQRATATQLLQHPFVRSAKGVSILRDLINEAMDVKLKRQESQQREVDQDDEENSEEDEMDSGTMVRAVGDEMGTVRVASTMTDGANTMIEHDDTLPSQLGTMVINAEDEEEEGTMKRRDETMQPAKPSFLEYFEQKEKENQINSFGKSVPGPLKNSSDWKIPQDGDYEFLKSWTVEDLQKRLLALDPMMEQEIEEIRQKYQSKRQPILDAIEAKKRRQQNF

[9] = molecular target: T5, dCTP pyrophosphatase 1 (Homo sapiens, UniProt Q9H773)
T5 sequence (Q9H773 whole entry): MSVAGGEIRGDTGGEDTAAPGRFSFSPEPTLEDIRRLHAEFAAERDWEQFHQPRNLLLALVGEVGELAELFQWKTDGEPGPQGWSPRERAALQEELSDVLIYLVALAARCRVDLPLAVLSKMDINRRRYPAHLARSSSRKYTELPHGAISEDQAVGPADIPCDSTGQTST

[10] = molecular target: Glycogen synthase kinase-3 beta (Homo sapiens, UniProt P49841)
Sequence of Glycogen synthase kinase-3 beta (P49841 whole entry): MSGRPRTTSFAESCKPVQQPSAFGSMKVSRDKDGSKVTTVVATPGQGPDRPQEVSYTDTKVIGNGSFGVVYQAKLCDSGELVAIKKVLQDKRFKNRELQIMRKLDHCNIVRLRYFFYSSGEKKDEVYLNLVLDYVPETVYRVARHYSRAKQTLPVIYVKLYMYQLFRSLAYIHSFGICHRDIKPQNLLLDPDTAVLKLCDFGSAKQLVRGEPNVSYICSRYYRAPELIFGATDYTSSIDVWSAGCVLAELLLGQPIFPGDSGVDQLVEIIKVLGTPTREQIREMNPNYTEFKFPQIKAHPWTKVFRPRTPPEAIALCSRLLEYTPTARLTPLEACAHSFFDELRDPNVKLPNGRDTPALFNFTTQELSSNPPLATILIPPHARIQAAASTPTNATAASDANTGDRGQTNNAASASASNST

[11] = molecular target: Serine/threonine-protein kinase pim-1 (Homo sapiens, UniProt P11309)
Sequence of Serine/threonine-protein kinase pim-1 (P11309 whole entry): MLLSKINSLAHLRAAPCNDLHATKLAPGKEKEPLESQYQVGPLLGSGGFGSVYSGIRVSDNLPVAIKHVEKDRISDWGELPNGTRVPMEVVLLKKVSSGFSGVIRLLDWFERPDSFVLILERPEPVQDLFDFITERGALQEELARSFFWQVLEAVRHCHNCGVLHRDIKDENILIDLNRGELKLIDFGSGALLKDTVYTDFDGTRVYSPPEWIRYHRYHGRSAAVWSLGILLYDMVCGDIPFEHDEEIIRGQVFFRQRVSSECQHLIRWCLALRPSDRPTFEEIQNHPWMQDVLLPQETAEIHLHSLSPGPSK

[12] = molecular target: DnaJ homolog subfamily A member 1 (Homo sapiens, UniProt P31689)
Sequence of DnaJ homolog subfamily A member 1 (P31689 whole entry): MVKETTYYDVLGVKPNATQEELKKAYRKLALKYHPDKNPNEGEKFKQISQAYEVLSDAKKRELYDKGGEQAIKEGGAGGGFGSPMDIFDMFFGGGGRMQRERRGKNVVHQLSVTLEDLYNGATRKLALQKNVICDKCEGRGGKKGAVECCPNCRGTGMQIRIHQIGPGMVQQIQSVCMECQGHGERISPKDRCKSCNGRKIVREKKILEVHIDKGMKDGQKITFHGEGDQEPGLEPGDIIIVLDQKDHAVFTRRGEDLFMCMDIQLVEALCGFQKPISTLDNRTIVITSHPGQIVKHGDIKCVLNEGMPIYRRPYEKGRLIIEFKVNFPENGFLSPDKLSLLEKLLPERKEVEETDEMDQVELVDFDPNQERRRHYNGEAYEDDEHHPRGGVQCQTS

[13] = molecular target: Ribosomal protein S6 kinase alpha-1 (Homo sapiens, UniProt Q15418)
Sequence of Ribosomal protein S6 kinase alpha-1 (Q15418 whole entry): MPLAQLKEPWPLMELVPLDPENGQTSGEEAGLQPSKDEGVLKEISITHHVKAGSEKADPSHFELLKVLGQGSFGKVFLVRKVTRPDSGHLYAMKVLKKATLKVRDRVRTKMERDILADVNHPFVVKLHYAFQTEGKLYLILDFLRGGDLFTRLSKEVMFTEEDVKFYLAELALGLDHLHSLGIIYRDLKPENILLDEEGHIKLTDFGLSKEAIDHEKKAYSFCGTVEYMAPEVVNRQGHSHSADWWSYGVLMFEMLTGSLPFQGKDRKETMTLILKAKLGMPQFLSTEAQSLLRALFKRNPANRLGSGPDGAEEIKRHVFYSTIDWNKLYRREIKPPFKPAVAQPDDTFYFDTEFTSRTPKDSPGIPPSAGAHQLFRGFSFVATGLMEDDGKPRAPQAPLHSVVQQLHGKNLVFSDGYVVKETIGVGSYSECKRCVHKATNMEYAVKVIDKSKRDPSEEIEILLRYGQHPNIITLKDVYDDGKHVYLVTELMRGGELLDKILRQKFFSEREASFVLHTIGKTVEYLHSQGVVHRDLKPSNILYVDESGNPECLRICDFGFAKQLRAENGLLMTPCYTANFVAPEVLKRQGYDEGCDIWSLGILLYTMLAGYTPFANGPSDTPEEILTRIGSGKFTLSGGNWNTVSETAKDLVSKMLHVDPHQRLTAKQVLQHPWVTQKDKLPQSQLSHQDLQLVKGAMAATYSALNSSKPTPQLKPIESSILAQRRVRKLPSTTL
Note: in the data inactive means no Kd found up to 30 µM.

Sequence of Protein kinase C delta type (Q05655 whole entry): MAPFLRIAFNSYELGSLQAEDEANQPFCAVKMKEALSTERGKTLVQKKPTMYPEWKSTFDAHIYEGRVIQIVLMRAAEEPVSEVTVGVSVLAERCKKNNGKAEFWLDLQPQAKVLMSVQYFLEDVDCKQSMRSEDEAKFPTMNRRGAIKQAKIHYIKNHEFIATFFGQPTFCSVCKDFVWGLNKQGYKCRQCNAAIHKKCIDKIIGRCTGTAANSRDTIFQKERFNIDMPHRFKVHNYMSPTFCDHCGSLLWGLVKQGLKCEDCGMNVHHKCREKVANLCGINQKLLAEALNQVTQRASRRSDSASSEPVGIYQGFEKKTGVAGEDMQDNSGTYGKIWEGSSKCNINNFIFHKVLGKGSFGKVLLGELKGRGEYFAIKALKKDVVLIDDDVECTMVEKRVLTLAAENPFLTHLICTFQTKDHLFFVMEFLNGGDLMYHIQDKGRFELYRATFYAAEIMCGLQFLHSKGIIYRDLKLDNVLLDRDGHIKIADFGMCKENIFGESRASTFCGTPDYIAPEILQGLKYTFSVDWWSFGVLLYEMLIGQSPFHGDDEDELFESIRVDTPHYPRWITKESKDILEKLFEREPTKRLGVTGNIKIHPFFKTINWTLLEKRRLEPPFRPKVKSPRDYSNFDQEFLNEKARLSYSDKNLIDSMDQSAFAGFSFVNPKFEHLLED

SMILES	Kd [1]	Kd [2]	Kd [3]	Kd [4]	Kd [5]	Kd [6]	Kd [7]	Kd [8]	Kd [9]	Kd [10]	Kd [11]	Kd [12]	Kd [13]
CNC(=O)CN1CCC(Oc2cc3c(Nc4cccc(Cl)c4F)ncnc3cc2OC)CC1 [SAPITINIB]	> 30 µM (inactive)	> 30 µM (inactive)	> 30 µM (inactive)	> 30 µM (inactive)	> 30 µM (inactive)	> 30 µM (inactive)	> 30 µM (inactive)	> 30 µM (inactive)	> 30 µM (inactive)	> 30 µM (inactive)	> 30 µM (inactive)	> 30 µM (inactive)	> 30 µM (inactive)
Cc1ccc(S(=O)(=O)Nc2nc3ccccc3nc2Nc2ccc3nsnc3c2)cc1	> 30 µM (inactive)	> 30 µM (inactive)	> 30 µM (inactive)	> 30 µM (inactive)	> 30 µM (inactive)	> 30 µM (inactive)	> 30 µM (inactive)	> 30 µM (inactive)	> 30 µM (inactive)	> 30 µM (inactive)	> 30 µM (inactive)	> 30 µM (inactive)	> 30 µM (inactive)
CN1CCC(COc2cnc(-c3cccc(Cn4nc(-c5cccc(C#N)c5)ccc4=O)c3)nc2)CC1 [TEPOTINIB]	> 30 µM (inactive)	> 30 µM (inactive)	> 30 µM (inactive)	> 30 µM (inactive)	> 30 µM (inactive)	> 30 µM (inactive)	> 30 µM (inactive)	> 30 µM (inactive)	> 30 µM (inactive)	> 30 µM (inactive)	> 30 µM (inactive)	> 30 µM (inactive)	> 30 µM (inactive)
O=C(c1ccc(F)c(F)c1Nc1ccc(I)cc1F)N1CC(O)([C@@H]2CCCCN2)C1 [COBIMETINIB]	> 30 µM (inactive)	> 30 µM (inactive)	> 30 µM (inactive)	> 30 µM (inactive)	> 30 µM (inactive)	> 30 µM (inactive)	> 30 µM (inactive)	> 30 µM (inactive)	> 30 µM (inactive)	> 30 µM (inactive)	> 30 µM (inactive)	> 30 µM (inactive)	> 30 µM (inactive)
CNC(=O)c1cc(Oc2ccc(NC(=O)Nc3ccc(Cl)c(C(F)(F)F)c3)c(F)c2)ccn1 [REGORAFENIB]	> 30 µM (inactive)	> 30 µM (inactive)	> 30 µM (inactive)	0.682 µM (active)	> 30 µM (inactive)	> 30 µM (inactive)	> 30 µM (inactive)	> 30 µM (inactive)	> 30 µM (inactive)	> 30 µM (inactive)	> 30 µM (inactive)	> 30 µM (inactive)	> 30 µM (inactive)
COc1cc2nccc(Oc3ccc(NC(=O)Nc4cc(C)on4)c(Cl)c3)c2cc1OC [TIVOZANIB]	> 30 µM (inactive)	> 30 µM (inactive)	> 30 µM (inactive)	> 30 µM (inactive)	> 30 µM (inactive)	> 30 µM (inactive)	> 30 µM (inactive)	> 30 µM (inactive)	> 30 µM (inactive)	> 30 µM (inactive)	> 30 µM (inactive)	> 30 µM (inactive)	> 30 µM (inactive)
Cc1ccc(NC(=O)c2ccc(CN3CC[C@H](N(C)C)C3)c(C(F)(F)F)c2)cc1Nc1nccc(-c2cncnc2)n1 [BAFETINIB]	> 30 µM (inactive)	> 30 µM (inactive)	> 30 µM (inactive)	0.304 µM (active)	> 30 µM (inactive)	> 30 µM (inactive)	> 30 µM (inactive)	> 30 µM (inactive)	> 30 µM (inactive)	> 30 µM (inactive)	> 30 µM (inactive)	> 30 µM (inactive)	> 30 µM (inactive)
CCS(=O)(=O)N1CC(CC#N)(n2cc(-c3ncnc4[nH]ccc34)cn2)C1 [BARICITINIB]	1.07 µM (active)	> 30 µM (inactive)	> 30 µM (inactive)	> 30 µM (inactive)	> 30 µM (inactive)	> 30 µM (inactive)	> 30 µM (inactive)	> 30 µM (inactive)	> 30 µM (inactive)	> 30 µM (inactive)	> 30 µM (inactive)	> 30 µM (inactive)	> 30 µM (inactive)

Now from value to compound:

Kd [1]	Kd [2]	Kd [3]	Kd [4]	Kd [5]	Kd [6]	Kd [7]	Kd [8]	Kd [9]	Kd [10]	Kd [11]	Kd [12]	Kd [13]	SMILES
> 30 µM (inactive)	> 30 µM (inactive)	> 30 µM (inactive)	> 30 µM (inactive)	> 30 µM (inactive)	> 30 µM (inactive)	> 30 µM (inactive)	> 30 µM (inactive)	> 30 µM (inactive)	> 30 µM (inactive)	> 30 µM (inactive)	> 30 µM (inactive)	> 30 µM (inactive)	COc1cc(N2CCC(N3CCN(C)CC3)CC2)ccc1Nc1ncnc(Nc2ccccc2S(=O)(=O)C(C)C)n1 [ASP-3026]
> 30 µM (inactive)	> 30 µM (inactive)	> 30 µM (inactive)	> 30 µM (inactive)	> 30 µM (inactive)	> 30 µM (inactive)	> 30 µM (inactive)	> 30 µM (inactive)	> 30 µM (inactive)	> 30 µM (inactive)	0.205 µM (active)	> 30 µM (inactive)	> 30 µM (inactive)	O=C1NC(=O)/C(=C/c2ccc3nccc(-c4ccncc4)c3c2)S1 [GSK-1059615]
> 30 µM (inactive)	> 30 µM (inactive)	> 30 µM (inactive)	0.354 µM (active)	> 30 µM (inactive)	0.202 µM (active)	> 30 µM (inactive)	> 30 µM (inactive)	> 30 µM (inactive)	> 30 µM (inactive)	> 30 µM (inactive)	> 30 µM (inactive)	> 30 µM (inactive)	O=C(Nc1ccc(-c2ccnc(Nc3ccc(N4CCOCC4)cc3)n2)cc1)C1CCCN1 (stereo not drawn) [XL-019]
